These results are taken from PMC4669789, “Selective inhibition of HDAC8 decreases neuroblastoma growth in vitro and in vivo and enhances retinoic acid-mediated differentiation” (Cell Death & Disease, 2015).

Common to all, as to experiment: In vitro HDAC activity assay (Reaction Biology)
What all share (format): biochemical

The target in one assay is T1, HDAC10 (Homo sapiens, UniProt Q969S8).
T1 sequence (Q969S8 1-323 limits assumed): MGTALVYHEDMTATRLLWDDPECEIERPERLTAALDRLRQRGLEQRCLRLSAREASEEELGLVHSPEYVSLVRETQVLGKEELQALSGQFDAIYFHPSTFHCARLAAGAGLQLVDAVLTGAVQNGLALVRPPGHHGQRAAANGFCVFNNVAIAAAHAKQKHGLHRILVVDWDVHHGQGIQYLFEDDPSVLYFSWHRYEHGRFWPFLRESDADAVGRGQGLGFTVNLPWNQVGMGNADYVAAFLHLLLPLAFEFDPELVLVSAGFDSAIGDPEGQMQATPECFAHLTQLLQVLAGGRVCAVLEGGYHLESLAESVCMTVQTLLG
The conditions noted are these: cell-free; read-out: IC50 values of HDAC8 inhibitors, HDAC10. The procedure: (§1) Peptide substrate was conjugated with AMC. […] The HDAC reaction was performed at 30 °C for 2 h before adding the developer reagent. The free AMC was detected with excitation of 360 nm and emission 460 nm at kinetic mode for 90 min. IC50 values were calculated with GraphPad Prism version 3.0a (GraphPad Software Inc., San Diego, CA, USA).

A further assay has as its target T2, HDAC11 (Homo sapiens, UniProt Q96DB2).
T2 sequence (Q96DB2 14-326 limits assumed): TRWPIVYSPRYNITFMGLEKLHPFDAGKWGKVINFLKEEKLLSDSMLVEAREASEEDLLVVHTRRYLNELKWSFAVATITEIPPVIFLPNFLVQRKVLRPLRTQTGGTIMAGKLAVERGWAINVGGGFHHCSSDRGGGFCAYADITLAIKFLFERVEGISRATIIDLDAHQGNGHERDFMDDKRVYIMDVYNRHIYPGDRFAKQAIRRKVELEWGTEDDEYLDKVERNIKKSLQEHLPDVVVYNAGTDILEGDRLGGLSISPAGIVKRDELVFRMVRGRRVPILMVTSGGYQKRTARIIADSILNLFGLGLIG
The conditions noted are these: cell-free; read-out: IC50 values of HDAC8 inhibitors, HDAC11. The procedure: as §1

The next assay has as its target HDAC3 (Homo sapiens, UniProt O15379). The settings on record: cell-free; read-out: IC50 values of HDAC8 inhibitors, HDAC3. The procedure:
as §1

In the next assay the target is HDAC4 (Homo sapiens, UniProt P56524). The settings on record: cell-free; read-out: IC50 values of HDAC8 inhibitors, HDAC4. The procedure: as §1
Sequence of HDAC4 (P56524 655-1084 limits assumed): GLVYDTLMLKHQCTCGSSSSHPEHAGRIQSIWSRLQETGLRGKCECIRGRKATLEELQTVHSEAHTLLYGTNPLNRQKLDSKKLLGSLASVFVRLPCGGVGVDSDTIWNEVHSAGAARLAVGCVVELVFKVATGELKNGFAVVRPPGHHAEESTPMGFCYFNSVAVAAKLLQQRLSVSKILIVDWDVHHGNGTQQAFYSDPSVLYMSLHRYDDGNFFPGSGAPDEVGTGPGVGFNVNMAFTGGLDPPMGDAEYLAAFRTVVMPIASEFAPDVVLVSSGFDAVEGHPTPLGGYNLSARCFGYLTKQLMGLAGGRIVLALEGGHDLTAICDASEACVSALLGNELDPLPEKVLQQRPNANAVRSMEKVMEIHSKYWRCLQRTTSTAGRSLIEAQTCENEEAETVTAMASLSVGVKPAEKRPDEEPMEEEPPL
The target of a further assay is T3, HDAC6 (Homo sapiens, UniProt Q9UBN7).
T3 sequence (Q9UBN7 1-1215): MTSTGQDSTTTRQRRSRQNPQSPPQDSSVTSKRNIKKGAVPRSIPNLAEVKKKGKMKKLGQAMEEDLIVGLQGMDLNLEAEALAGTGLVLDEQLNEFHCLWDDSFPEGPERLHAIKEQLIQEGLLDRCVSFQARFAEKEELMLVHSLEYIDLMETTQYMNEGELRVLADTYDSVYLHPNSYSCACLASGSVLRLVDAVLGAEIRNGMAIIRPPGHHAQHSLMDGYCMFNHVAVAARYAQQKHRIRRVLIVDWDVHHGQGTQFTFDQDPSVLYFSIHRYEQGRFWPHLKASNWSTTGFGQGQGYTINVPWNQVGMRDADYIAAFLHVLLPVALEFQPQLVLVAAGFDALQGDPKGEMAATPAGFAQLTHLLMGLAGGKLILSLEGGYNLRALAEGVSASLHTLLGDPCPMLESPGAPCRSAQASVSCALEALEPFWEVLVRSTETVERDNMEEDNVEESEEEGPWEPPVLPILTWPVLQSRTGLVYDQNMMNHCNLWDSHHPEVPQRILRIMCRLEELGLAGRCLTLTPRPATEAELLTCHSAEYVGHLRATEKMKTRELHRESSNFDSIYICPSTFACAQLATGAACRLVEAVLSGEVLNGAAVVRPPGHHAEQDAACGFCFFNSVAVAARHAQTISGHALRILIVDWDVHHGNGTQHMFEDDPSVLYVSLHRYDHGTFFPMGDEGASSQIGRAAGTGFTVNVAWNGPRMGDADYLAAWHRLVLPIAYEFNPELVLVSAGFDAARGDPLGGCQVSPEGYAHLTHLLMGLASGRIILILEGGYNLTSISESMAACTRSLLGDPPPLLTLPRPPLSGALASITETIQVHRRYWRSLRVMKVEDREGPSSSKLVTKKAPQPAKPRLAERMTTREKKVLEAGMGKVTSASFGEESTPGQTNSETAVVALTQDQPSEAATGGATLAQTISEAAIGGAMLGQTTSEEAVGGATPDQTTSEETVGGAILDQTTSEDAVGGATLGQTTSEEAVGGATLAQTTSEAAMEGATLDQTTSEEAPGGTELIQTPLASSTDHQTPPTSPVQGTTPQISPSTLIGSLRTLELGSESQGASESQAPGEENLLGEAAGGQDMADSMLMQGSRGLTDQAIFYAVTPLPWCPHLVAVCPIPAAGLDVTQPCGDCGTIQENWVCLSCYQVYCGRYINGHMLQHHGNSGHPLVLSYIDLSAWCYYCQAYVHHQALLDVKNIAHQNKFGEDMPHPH
The procedure:
as §1

The target in a further assay is T4, HDAC8 (Homo sapiens, UniProt Q9BY41).
T4 sequence (Q9BY41 14-324 limits assumed): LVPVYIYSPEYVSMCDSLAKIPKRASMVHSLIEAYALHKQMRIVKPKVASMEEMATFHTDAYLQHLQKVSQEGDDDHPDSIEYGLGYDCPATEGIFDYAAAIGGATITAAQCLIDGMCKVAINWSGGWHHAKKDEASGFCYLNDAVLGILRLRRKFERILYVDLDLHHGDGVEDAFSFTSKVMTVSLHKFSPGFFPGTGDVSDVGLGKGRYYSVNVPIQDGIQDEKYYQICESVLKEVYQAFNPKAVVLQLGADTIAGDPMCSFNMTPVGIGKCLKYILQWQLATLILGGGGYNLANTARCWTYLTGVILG
The settings on record: cell-free; read-out: IC50 values of HDAC8 inhibitors, HDAC8. The procedure: as §1

The target in another assay is HDAC9 (Homo sapiens, UniProt Q9UKV0). The settings on record: cell-free; read-out: IC50 values of HDAC8 inhibitors, HDAC9. The method, then: as §1
Sequence of HDAC9 (Q9UKV0 631-978 limits assumed): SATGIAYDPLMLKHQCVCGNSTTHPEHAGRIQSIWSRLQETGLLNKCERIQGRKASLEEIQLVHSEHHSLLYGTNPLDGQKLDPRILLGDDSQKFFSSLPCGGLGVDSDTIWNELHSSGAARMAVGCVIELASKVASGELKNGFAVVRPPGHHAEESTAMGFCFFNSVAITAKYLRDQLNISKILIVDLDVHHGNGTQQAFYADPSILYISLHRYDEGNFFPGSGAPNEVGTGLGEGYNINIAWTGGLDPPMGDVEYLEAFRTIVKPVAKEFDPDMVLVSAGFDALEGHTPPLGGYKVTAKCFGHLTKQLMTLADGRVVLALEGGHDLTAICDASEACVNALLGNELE

The structures appear in SMILES notation. Where “and” joins values, the source holds several entries; their conditions need not be identical. Equal entries are not always repeated. A value given as a limit tells only on which side of the number the result lay.

For orientation: IC50 means the concentration at which inhibition is half-maximal.

Sequence of HDAC3 (O15379 3-316 limits assumed): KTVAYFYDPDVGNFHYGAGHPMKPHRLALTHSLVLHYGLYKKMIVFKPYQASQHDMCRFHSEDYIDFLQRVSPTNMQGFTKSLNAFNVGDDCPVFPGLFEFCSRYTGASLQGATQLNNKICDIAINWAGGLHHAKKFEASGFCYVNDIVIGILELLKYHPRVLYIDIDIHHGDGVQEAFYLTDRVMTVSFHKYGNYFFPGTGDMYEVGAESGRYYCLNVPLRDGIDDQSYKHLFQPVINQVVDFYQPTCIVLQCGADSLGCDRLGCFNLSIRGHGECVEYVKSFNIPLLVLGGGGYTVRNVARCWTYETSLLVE
Sequence of HDAC3 (Q9Y618 395-489 partner limits assumed): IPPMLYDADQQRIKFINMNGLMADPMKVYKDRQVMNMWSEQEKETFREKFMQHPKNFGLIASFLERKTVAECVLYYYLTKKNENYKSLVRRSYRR

As for `O=C(NO)c1cccc2ccccc12` [Cpd2, 1-naphthohydroxamic acid], the IC50 on HDAC10 was greater than 75.6 µM; at HDAC11, greater than 75.6 µM; on HDAC3, greater than 75.6 µM; on HDAC4, greater than 75.6 µM; at HDAC6 (cell-free, read-out: IC50 values of HDAC8 inhibitors, HDAC6) it was 75.6 µM; at HDAC8, 34 µM and 33.7 µM. Moreover, at HDAC9, the half-maximal inhibitory concentration (IC50) was greater than 75.6 µM. For the same compound, the “concentrations above which HDAC6 and HDAC1 are potential off-target HDACs” value at HDAC6 (from cell-free assays of HDACs 1–11) was “above 75 μM”.
